Data as given in patent US11000501B2, “Composition for preventing or treating neurological and mental disorders, containing syringaresinol” (SEOUL NATIONAL UNIVERSITY R&DB FOUNDATION, priority 2016, dated 2021).

Legend:
Assay type in all cases: cell-based, mouse
CA1 neurons [1] = assay: Miniature EPSC (mEPSC) recording in CA1 neurons
Experimental: (§1) A miniature EPSC (mEPSC) was measured at −70 mV with a pipette solution. In this connection, the pipette solution contained 110 mM K-gluconate, 20 mM KCl, 8 mM NaCl, 10 mM HEPES, 0.5 mM QX-314-C1, 4 mM Mg-ATP, 0.3 mM Na-GTP and 0.5 mM EGTA. The solution had pH 7.25 and 290 mOsm/kg. Voluntary action potentials and IPSCs were blocked by TTX (1 μM) and picrotoxin (50 μM), respectively. For mIPSC recording, the K-gluconate in the pipette solution was replaced with the KCl having the same number of moles as the K-gluconate.
Next, the effect of SYR on miniature EPSC (mEPSC) in CA1 neurons was examined.

[2] = test system: CA1 neurons (inhibitory synaptic transmission); assay: Miniature IPSC (mIPSC) recording in CA1 neurons
Experimental: as §1
The effect of SYR on the miniature IPSC (mIPSC) was checked.

[3] = test system: CA1 neurons (inhibitory synaptic transmission); assay: Evoked IPSC (eIPSC) recording in CA1 neurons; conditions: 100 μM
Text: A stimulating electrode was placed on a radiating layer or a pyramidal cell layer near the target cell. […] […] During eEPSC or eIPSC recording, series resistance and seal resistance were continuously observed using short hyperpolarization pulses (−5 mV, 50 ms). When the resistance was changed by more than 20% during recording, the data was discarded.
SYR […] inhibitory synaptic transmission in CA1 neurons. […] There was no difference between the first eIPSC (t=−0.47, p>0.05) and the second eIPSC (t=−0.33, p>0.05) as measured before and after the application of SYR respectively.

[4] = test system: Ca^2+ channel in CA1 neurons; assay: Ca2+ channel current (Ba2+ current) recording in CA1 neurons; conditions: 100 μM; depolarization −90 mV to −10 mV, 50 ms
[5] = test system: AMPAR-EPSC in CA1 neurons; assay: AMPAR-mediated EPSC whole-cell patch clamp in CA1 neurons
Experimental: To measure evoked excitatory post-synaptic current (eEPSC), the synapse potential was recorded using a patch pipette (3 to 4Mohm) via the membrane voltage clamp technique. The patch pipette contained a solution containing 100 mM CsMeSO4, 10 mM TEA-Cl, 20 mM CsCl, 8 mM NaCl, 10 mM HEPES, 0.5 mM QX-314-Cl, 4 mM Mg-ATP, 0.3 mM Na-GTP and 10 mM EGTA and having pH 7.25 and 290 mOsm/kg. EPSC was measured at a frequency of 0.05 Hz. The synaptic current was induced using a glass pipette (0.3 to 0.5 Mohm). GABAA receptor (GABAAR) antagonist picrotoxin (50 μM) was added to ACSF.
Thus, it was necessary to check the effect of SYR on desensitization of AMPAR in CA1 neurons. The whole-cell patch clamp technique was used in the presence of NMDAR blocker AP-5 and GABAA receptor blocker picrotoxin (PTX, 50 μM).
To confirm this assumption, we examined the effect of SYR on AMPAR-EPSC by injecting, as the actin-stabilizer, jasplakinolide (2 μM) into the patch pipette solution (FIG. 3H to FIG. 3J).
Furthermore, we checked whether post-synaptic loading of SYR regulates AMPAR-EPSC. We measured AMPAR-EPSC for 25 minutes immediately after cell membrane-punching using a K+-based pipette solution. […] If the post-synaptic loading of SYR affects AMPAR-EPSC, gradual diffusion of SYR from the pipette solution should inhibit AMPAR-EPSC.
(§2) Previous studies have shown that the secretion probability is regulated by the size of the readily releasable pool (RRP) of hippocampal neurons. Therefore, RRP was measured before and after treatment with SYR (100 μM). A high-frequency train (20 Hz) composed of more than 60 stimuli was prepared. 80 stimuli at 20 Hz was applied to completely remove RRP from the SC-CA1 synapse. RRP size was measured by cumulative amplitude analysis (Stevens and Williams, 2007; Wesseling and Lo, 2002).

hippocampal CA1 region = assay: Picrotoxin-induced epilepsy activity in intact hippocampal slices; conditions: picrotoxin 50 μM
Experimental: Selective inhibition of excitatory synaptic transmission rather than inhibitory synapse transmission means that SYR may change the balance between synapse excitation and inhibition in neurons. We checked whether this synapse regulation might inhibit epilepsy pathogenic activity caused by excessive excitement of the neural network. To model an epilepsy pathogenic neuron network in experimental conditions (in vitro), the hippocampal slice was prepared while the CA3 region was left. During recording, ACSF containing picrotoxin (50 μM) was perfused in intact hippocampal slices. […] Continuous picrotoxin perfusion (>20 min) discharged an epilepsy pathogenic excitation wave. This wave was characterized by a three to seven population spikes (PS) waveform of a decreasing amplitude (FIG. 7C).

[6] = test system: SC-CA1 synapse synaptic vesicle pool; assay: Readily releasable pool (RRP) size by cumulative amplitude analysis, 20 Hz train; conditions: 100 μM; 80 stimuli at 20 Hz
Experimental: as §2, with “2002). In the presence of AP-5 and picrotoxin, SYR inhibited AMPAR-EPSC (FIG. 5A and FIG. 5B). […] An extent by which RRP size is reduced was very close to an extent by which synapse is inhibited (FIG. 5B and FIG. 5F). […] This means that a decrease in RRP size may lead to the SYR-induced synapse decrease.” for “2002).”

CA1 neurons [7] = assay: Whole-cell current clamp recording of membrane potential
Text: Next, whole-cell current clamp recordings were used to check the effect of SYR on the membrane potential of CA1 neurons.

COc1cc(C2OCC3C(c4cc(OC)c(O)c(OC)c4)OCC23)cc(OC)c1O (centres unmarked) [SYR, syringaresinol]
mEPSC amplitude (CA1 neurons [1]): did not change | mEPSC frequency (CA1 neurons [1]): did not change | amplitude of mIPSC [2]: did not affect | frequency of mIPSC [2]: did not affect | ratio of IPSC amplitude induced by paired-pulse stimulation (PPR) ([3]; 100 ms interval): did not change | eIPSC amplitude (first and second) ([3]; in presence of NBQX and AP-5): had no effect on eIPSC | Ba^2+ current mediated by the Ca^2+ channel [4]: rapidly reduced | AMPAR-EPSC ([5]; 100 μM, AP-5 and picrotoxin present): inhibited | excitatory post-synaptic current (EPSC) amplitude ([5]; fixed potential of −70 mV, AP-5 and picrotoxin 50 μM present): significantly reduced | time constant of EPSC reduction (decay) ([5]; −70 mV): did not affect | amplitude of first epilepsy pathological excitation wave (first PS) (hippocampal CA1 region): decreased | area of the epilepsy pathological fEPSP (population spike) (hippocampal CA1 region): decreased | epilepsy pathological excitation wave (hippocampal CA1 region): significantly inhibited | slope of fEPSP in epilepsy-induced hippocampal slice (hippocampal CA1 region): rapidly reduced | RRP size [6]: significant decrease | membrane potential of CA1 neurons (CA1 neurons [7]; SYR 100 μM applied extracellularly): Significant hyperpolarization | resting membrane potential (CA1 neurons [7]; SYR 100 μM in the pipette solution): did not affect resting membrane potential
